Active and inactive are the calls of the source. The calls are words filed in the database; no cut-off is given here.
Experiments:
[1] = test system: Rhynchophorus ferrugineus; assay: Pesticidal activity against Rhynchophorus ferrugineus (red palm weevil) cocoon assessed as mortality at 1 ppm administered by dipping for 3 min measured at 18 hr post-treatment relative to control; format: functional
[2] = test system: Rhynchophorus ferrugineus; assay: Pesticidal activity against Rhynchophorus ferrugineus (red palm weevil) larvae assessed as mortality at 1 ppm, po at 48 hr post-treatment relative to control; format: functional
[3] = test system: Rhynchophorus ferrugineus; assay: Pesticidal activity against Rhynchophorus ferrugineus (red palm weevil) cocoon assessed as mortality at 20 ppm administered by dipping for 3 min measured at 18 hr post-treatment relative to control; format: functional
[4] = test system: Rhynchophorus ferrugineus; assay: Pesticidal activity against Rhynchophorus ferrugineus (red palm weevil) larvae assessed as mortality at 4 ppm, po at 114 hr post-treatment relative to control; format: functional
[5] = test system: Rhynchophorus ferrugineus; assay: Pesticidal activity against Rhynchophorus ferrugineus (red palm weevil) larvae assessed as mortality at 2 ppm, po at 90 hr post-treatment relative to control; format: functional
[6] = test system: Rhynchophorus ferrugineus; assay: Pesticidal activity against Rhynchophorus ferrugineus (red palm weevil) larvae assessed as mortality at 2 ppm, po at 72 hr post-treatment relative to control; format: functional
[7] = test system: Rhynchophorus ferrugineus; assay: Pesticidal activity against adult Rhynchophorus ferrugineus (red palm weevil) infested date palm tree assessed as mortality of collected live stage at 20 ml/4l of water applied through soil-drench irrigation measured after 3 weeks relative to control; format: functional
[8] = test system: Rhynchophorus ferrugineus; assay: Pesticidal activity against Rhynchophorus ferrugineus (red palm weevil) larvae infested date palm tree assessed as mortality at 20 ml/4l of water applied through soil-drench irrigation measured after 3 weeks relative to control; format: functional
[9] = test system: Rhynchophorus ferrugineus; assay: Pesticidal activity against adult Rhynchophorus ferrugineus (red palm weevil) assessed as mortality at 500 ppm administered topically at 36 hr post-treatment; format: functional
[10] = test system: Rhynchophorus ferrugineus; assay: Pesticidal activity against adult Rhynchophorus ferrugineus (red palm weevil) assessed as mortality at 1000 ppm administered topically at 36 hr post-treatment; format: functional
[11] = test system: Rhynchophorus ferrugineus; assay: Pesticidal activity against adult Rhynchophorus ferrugineus (red palm weevil) assessed as mortality at 100 ppm administered topically at 18 hr post-treatment; format: functional
[12] = test system: Rhynchophorus ferrugineus; assay: Pesticidal activity against Rhynchophorus ferrugineus (red palm weevil) cocoon assessed as mortality at 1.5 ppm administered by dipping for 3 min measured at 90 hr post-treatment relative to control; format: functional
[13] = test system: Rhynchophorus ferrugineus; assay: Pesticidal activity against Rhynchophorus ferrugineus (red palm weevil) cocoon assessed as mortality at 2 ppm administered by dipping for 3 min measured at 90 hr post-treatment relative to control; format: functional
[14] = test system: Rhynchophorus ferrugineus; assay: Contact toxicity against Rhynchophorus ferrugineus (red palm weevil) adults assessed as time required for 100% reversible knockdown at 3.5 ml/l for 5 min; format: functional
[15] = test system: Rhynchophorus ferrugineus; assay: Contact toxicity against Rhynchophorus ferrugineus (red palm weevil) adults assessed as time required for 100% reversible knockdown at 1.5 ml/l for 5 min; format: functional
[16] = test system: Rhynchophorus ferrugineus; assay: Contact toxicity against Rhynchophorus ferrugineus (red palm weevil) adults assessed as time required for 100% mortality at 1.5 ml/l for 2 min; format: functional
[17] = test system: Rhynchophorus ferrugineus; assay: Contact toxicity against Rhynchophorus ferrugineus (red palm weevil) adults assessed as time required for 50% mortality at 3.5 ml/l for 2 min; format: functional
[18] = test system: Rhynchophorus ferrugineus; assay: Contact toxicity against Rhynchophorus ferrugineus (red palm weevil) adults assessed as time required for 50% reversible knockdown at 2.5 ml/l for 2 min; format: functional
[19] = test system: Rhynchophorus ferrugineus; assay: Pesticidal activity against Rhynchophorus ferrugineus (red palm weevil) cocoon assessed as mortality at 1 ppm administered by dipping for 3 min measured at 72 hr post-treatment relative to control; format: functional
[20] = test system: Rhynchophorus ferrugineus; assay: Pesticidal activity against Rhynchophorus ferrugineus (red palm weevil) cocoon assessed as mortality at 1.5 ppm administered by dipping for 3 min measured at 72 hr post-treatment relative to control; format: functional
[21] = test system: Rhynchophorus ferrugineus; assay: Pesticidal activity against adult Rhynchophorus ferrugineus (red palm weevil) infested date palm tree assessed as disorientation of collected live stage larvae at 20 ml/4l of water applied through soil-drench irrigation measured after 3 weeks relative to control; format: functional, organism-based
[22] = test system: Rhynchophorus ferrugineus; assay: Pesticidal activity against Rhynchophorus ferrugineus (red palm weevil) larvae infested date palm tree assessed as non-feeding status of collected live stage larvae at 20 ml/4l of water applied through soil-drench irrigation measured after 3 weeks relative to control; format: functional, organism-based
[23] = test system: Rhynchophorus ferrugineus; assay: Pesticidal activity against Rhynchophorus ferrugineus (red palm weevil) cocoon assessed as mortality at 4 ppm administered by dipping for 3 min measured at 72 hr post-treatment relative to control; format: functional
[24] = test system: Rhynchophorus ferrugineus; assay: Pesticidal activity against adult Rhynchophorus ferrugineus (red palm weevil) assessed as mortality at 1.5 ppm, po at 90 hr post-treatment relative to control; format: functional
[25] = test system: Rhynchophorus ferrugineus; assay: Pesticidal activity against adult Rhynchophorus ferrugineus (red palm weevil) assessed as mortality at 0.5 ppm, po at 48 hr post-treatment relative to control; format: functional
[26] = test system: Rhynchophorus ferrugineus; assay: Pesticidal activity against adult Rhynchophorus ferrugineus (red palm weevil) assessed as mortality at 0.5 ppm, po at 24 hr post-treatment relative to control; format: functional
[27] = test system: Rhynchophorus ferrugineus; assay: Pesticidal activity against adult Rhynchophorus ferrugineus (red palm weevil) assessed as mortality at 0.5 ppm, po at 18 hr post-treatment relative to control; format: functional
[28] = test system: Rhynchophorus ferrugineus; assay: Pesticidal activity against adult Rhynchophorus ferrugineus (red palm weevil) assessed as mortality at 1.5 ppm, po at 18 hr post-treatment relative to control; format: functional
[29] = test system: Rhynchophorus ferrugineus; assay: Pesticidal activity against Rhynchophorus ferrugineus (red palm weevil) larvae assessed as mortality at 100 ppm administered topically at 72 hr post-treatment; format: functional
[30] = test system: Rhynchophorus ferrugineus; assay: Pesticidal activity against Rhynchophorus ferrugineus (red palm weevil) larvae assessed as mortality at 1.5 ppm, po at 24 hr post-treatment relative to control; format: functional
[31] = test system: Rhynchophorus ferrugineus; assay: Pesticidal activity against Rhynchophorus ferrugineus (red palm weevil) larvae assessed as mortality at 1.5 ppm, po at 18 hr post-treatment relative to control; format: functional
[32] = test system: Rhynchophorus ferrugineus; assay: Pesticidal activity against adult Rhynchophorus ferrugineus (red palm weevil) assessed as mortality at 1 ppm, po at 114 hr post-treatment relative to control; format: functional
[33] = test system: Rhynchophorus ferrugineus; assay: Pesticidal activity against Rhynchophorus ferrugineus (red palm weevil) larvae assessed as mortality at 500 ppm administered topically at 72 hr post-treatment; format: functional
[34] = test system: Rhynchophorus ferrugineus; assay: Pesticidal activity against Rhynchophorus ferrugineus (red palm weevil) larvae assessed as mortality at 300 ppm administered topically at 48 hr post-treatment; format: functional
[35] = test system: Rhynchophorus ferrugineus; assay: Pesticidal activity Rhynchophorus ferrugineus (red palm weevil) larvae assessed as time required after hatching for 100% mortality at 2.5 ml/l administered topically measured up to 14 days relative to control; format: functional
[36] = test system: Rhynchophorus ferrugineus; assay: Pesticidal activity against Rhynchophorus ferrugineus (red palm weevil) cocoons assessed as mortality at 3.5 ml/l administered by dipping for 3 min measured within 3 days; format: functional
[37] = test system: Rhynchophorus ferrugineus; assay: Pesticidal activity against Rhynchophorus ferrugineus (red palm weevil) cocoons assessed as time required for total mortality at 3.5 ml/l administered by dipping for 10 secs; format: functional
[38] = test system: Rhynchophorus ferrugineus; assay: Pesticidal activity against Rhynchophorus ferrugineus (red palm weevil) cocoons assessed as time required for total mortality at 1.5 ml/l administered by dipping for 10 secs; format: functional
[39] = test system: Rhynchophorus ferrugineus; assay: Pesticidal activity against adult Rhynchophorus ferrugineus (red palm weevil) assessed as time required for 100% mortality at 3.5 ml/l administered topically; format: functional
[40] = test system: Rhynchophorus ferrugineus; assay: Pesticidal activity against adult Rhynchophorus ferrugineus (red palm weevil) assessed as mortality at 1000 ppm administered topically at 72 hr post-treatment; format: functional
[41] = test system: Rhynchophorus ferrugineus; assay: Pesticidal activity against adult Rhynchophorus ferrugineus (red palm weevil) assessed as time required for reversible knockdown at 2.5 ml/l administered topically; format: functional

O=[N+]([O-])/N=C1\NCCN1Cc1ccc(Cl)nc1 [IMIDACLOPRID]
Activity [1]: 0% | Activity [2]: 38.9% | Activity [3]: 0% | Activity [4]: 100% | Activity [5]: 100% | Activity [6]: 100% | Activity [7]: 100% | Activity [8]: 61.9% | Activity [9]: 72.2% | Activity [10]: 100% | Activity [11]: 0% | Activity [12]: 44.4% | Activity [13]: 72.2% | Time [14]: 2.1 days | Time [15]: 4.2 days | Time [16]: 18 days | Time [17]: 4.1 days | Time [18]: 1.1 days | Activity [19]: 0% | Activity [20]: 0% | Activity [21]: Active | Activity [22]: Active | Activity [23]: 44.4% | Activity [24]: 100% | Activity [25]: 38.9% | Activity [26]: 0% | Activity [27]: 0% | Activity [28]: 72.2% | Activity [29]: 0% | Activity [30]: 100% | Activity [31]: 72.2% | Activity [32]: 72.2% | Activity [33]: 72.2% | Activity [34]: 0% | Time [35]: 6 days | Activity [36]: 76.7% | Time [37]: 6 days | Time [38]: 10 days | Time [39]: 6.1 days | Activity [40]: 100% | Time [41]: 2 days

From ChEMBL document CHEMBL3046274, “Toxicity of imidacloprid to developmental stages of Rhynchophorus ferrugineus (Curculionidae: Coleoptera): Laboratory and field tests” (Crop Prot, 2006)
